Legend:
[1] = test system: branch of the superior sagittal sinus in the brains; assay: Transection of a branch of the superior sagittal sinus in the brain, hemostasis; type: in vivo; conditions: hamsters; 20 μl of a 1% peptide solution at the site of the sinus branch transection; all cases
Experimental: (§1) Animals were anesthetized with an i.p. injection of ketamine (80 mg/kg) and xylazine (8 mg/kg). All surgical procedures were conducted under an operating microscope. Twenty-two animals, including 10 adult hamsters and 12 young adult female Spraque-Dawley rats (200-250 g), were treated with either iced saline or 20 μl of a 1% peptide solution at the site of the sinus branch transection. The material was prepared by dissolving RADA 16-1 (n-RADARADARADARADA-c; SEQ ID NO: 1) peptide in sterile water, and the peptide-containing solution was applied to the injured tissue with a 31 gauge needle attached to a 2 cc syringe.
(§2) The experiment was videotaped with a time stamp and was replayed one frame at a time to evaluate the length of time required for the peptide solution to form a gel, which effectively impeded bleeding. Hemostasis was assessed visually, and “complete hemostasis” was defined as the complete lack of movement of blood from the wound site.

[2] = test system: muscle of the hind limb (porteocaudalis and musculus tibialis cranialis); assay: Muscle trauma, hind limb muscle and limb wounds, hemostasis; type: in vivo, rat
Source text: The spinotrapezius muscles on the back of the rats were exposed and a deep cut was made in the muscle, after which 1% peptide solution (RADA16-I) (SEQ ID NO: 1) was applied in the cut. Within 10 seconds, all bleeding had stopped. With the application of iced saline alone, control animals continued to bleed after 20 seconds. […] However when an artery or vein was transected 2% or higher material was needed to bring about hemostasis. […]

[3] = test system: branch of the superior sagittal sinus in the brains; assay: Transection of a branch of the superior sagittal sinus in the brain, hemostasis; type: in vivo, rats
Experimental: as §1, §2
Durations were measured from the start of application of peptide solution to the completion of hemostasis after transection of the veins leading to the sinus in the brains of adult rats. […] In the saline controls, cessation of bleeding was never achieved. The saline control experiment was terminated at the same time point in order to prevent the animals from bleeding to death.

[4] = test system: liver; assay: 4 mm liver punch biopsy, adhesions; type: in vivo, adult rats; conditions: punch filled with 3%; survival 2 d, 7 d, 14 d, 6 w, 8 w
Experimental: The liver of 18 adult rats was exposed under deep anesthesia, the upper right lobe was punched by a 4 mm punch, then the wound was treated with 3% NHS-1. Animals were allowed to survive 2 d, 7 d, 14 d, 6 w, and 8 w respectively, then the animals were anesthetized again and the punched lobe of liver was dissected and processed for H&E staining. In addition a set of controls were treated with either saline or cautery. 4 mm liver punch biopsy experiment with control and filling of punch with 3% RADA. All of the controls had adhesions on both surfaces while the treated had no adhesions. In the 2 week, 6 week and 8 week controls adhesions were cut away on the upper and lower surfaces. On all the 3% RADA treated cases there were no adhesions on with the upper or lower surface of the liver.

[5] = test system: lobus sinistras laterialis of the liver; assay: Removal of ¼ of the liver lobe, topical treatment of the margin, hemostasis; type: in vivo
Experimental: In other experiments ¼ of the lobe in the lower right quadrant of the lobus sinistras laterialis was removed, and the margin was treated with a topical application of 2% peptide (RADA16-I) (SEQ ID NO: 1) to the site of injury. Bleeding stopped in less than 10 seconds.

[6] = test system: spinotrapezius muscles; assay: Muscle trauma, cut in spinotrapezius muscle on the back, hemostasis; type: in vivo, rat; conditions: 1% peptide solution applied in deep cut, 1-2 cm incisions
Source text: The spinotrapezius muscles on the back of the rats were exposed and a deep cut was made in the muscle, after which 1% peptide solution (RADA16-I) (SEQ ID NO: 1) was applied in the cut. Within 10 seconds, all bleeding had stopped. With the application of iced saline alone, control animals continued to bleed after 20 seconds.

[7] = test system: femoral artery; assay: Femoral artery transection, hemostasis; type: in vivo, adult rats
Experimental: The sciatic nerve and the adjacent femoral artery were exposed in adult rats, and the femoral artery was transected. Twelve rats were treated by application of 20 μl of a 1% solution of RADA 16-I (SEQ ID NO: 1) peptide to the site of transection using a glass pipette attached to a syringe body, while controls were treated by applying cold saline to the site of transection. […] The saline control cases continued to bleed until the experiment was terminated at 110 seconds.
A series of pictures was taken in an adult rat in which the femoral artery was transected. In the picture taken first, the sciatic nerve and the femoral artery are exposed. […] The assembled material can be suctioned off the site easily if desired.

[8] = test system: skin and subcutaneous tissue; assay: 4 mm punch biopsy of skin and subcutaneous tissue, healing test; type: in vivo
Experimental: The regions from which the biopsies were taken were either treated by a single application of self-assembling peptide (RADA16-I) (SEQ ID NO: 1) solution or were left untreated. The wounds were left unbandaged. A series of pictures of a 4 mm punch biopsy healing test in which injured animals were treated with the self assembling peptide and compared to matching cases with no treatment illustrates the results. The wounds were photographed on day 0, day 1, day 4, and day 7. […] Treatment with the peptide appeared to speed healing by as much as 5 days in some cases.

[9] = test system: liver, lobus sinister lateralis; assay: Liver cut, rostral to caudal, vessel of relatively low pressure, hemostasis; type: in vivo, adult rat; conditions: 1% peptide solution applied topically and in the cut
Source text: Profuse bleeding ensued. A 1% peptide solution (RADA16-1) (SEQ ID NO: 1) was applied to the cut and in its vicinity using a 27 gauge needle and 4 cc syringe. All bleeding stopped within 10 seconds. A series of pictures was obtained. […] After treating the site with 1% peptide solution (applied topically and in the cut), all bleeding stopped within 10 seconds. A clear area was observed between the two halves of the lobus sinister lateralis. This procedure was repeated several times with the same result.

[10] = test system: liver, lobus sinister lateralis and a major branch of the portal vein; assay: Liver transverse cut with major branch of the portal vein, higher pressure, hemostasis; type: in vivo, rat
Experimental: A series of pictures illustrate the experiment. […] The cut was treated with 4% peptide solution applied topically and in the cut. All bleeding stopped within 10 seconds. […] Thus, application of 4% peptide solution brings about complete hemostasis in a high pressure bleeding environment in less than 10 seconds. […] This procedure was repeated several times with the same result.

[11] = test system: superior sagittal sinus; assay: Complete transection of the superior sagittal sinus, hemostasis; type: in vivo; conditions: control animals that continued to bleed after 20 seconds
Source text: A higher concentration of peptide (e.g., approximately 3%-4%) was used in the latter experiment in order to achieve hemostasis. The three saline control cases continued to bleed after 20 seconds.

[12] = test system: intestine at the level of the duodenum; assay: Perforation of the intestine at the level of the duodenum, leakage of gastric fluid; type: in vivo, adult rat
Experimental: An additional volume of 2% peptide solution was injected into the duodenum at the level of the injury. […] In the control cut at the level of the duodenum, the wall of the intestine inverted and gastric fluids continued to leak from the site of injury when left untreated.

## n-RADARADARADARADA-c [RADA16-I]
[1]
  time to complete hemostasis after application of the peptide solution: ≤ 10 s
[2]; between 1% to 100% peptide applied
  hemostasis in limb wounds: hemostasis was achieved in all cases
[2]; when an artery or vein was transected
  concentration of material needed to bring about hemostasis: ≥ 2%
[3]; adult rat, one of the veins of the superior sagittal sinus transected, series of pictures
  hemostasis five seconds after the peptide solution was applied: Complete hemostasis was achieved
[3]; adult rats, transection of the veins leading to the sinus
  average duration from start of application of peptide solution to completion of hemostasis: 8.3 s
[3]; rats, 20 μl of a 1% peptide solution at the site of the sinus branch transection, all cases
  time to complete hemostasis after application of the peptide solution: ≤ 10 s
[4]
  adhesions on the upper or lower surface of the liver: no adhesions
[5]; 2% peptide, removed one minute later
  hemostasis at the margin of the liver after the peptide was removed: complete hemostasis was achieved
[5]; topical application of 2% peptide to the margin
  time until bleeding stopped: less than 10 seconds
[6]
  time until all bleeding had stopped: ≤ 10 s
[7]; 20 μl of a 1% solution at the site of transection, twelve rats, all treated cases
  time to hemostasis: less than 10 seconds
[7]; adult rat, series of pictures
  time at which complete hemostasis was observed: about five
[7]; control animals that bled until 110 seconds
  hemostasis after replacement of the cold saline with the peptide solution: almost immediate achievement of complete hemostasis
[7]; duration of the test
  time complete hemostasis was maintained: 1 h
[8]; all cases
  shrinkage of the wound site versus untreated: happened faster
[8]; single application, contraction of the wound site as early as day 1
  healing of treated wounds versus no treatment: healed much faster
[8]; single application, in some cases
  speeding of healing: ≤ 5 days
[9]
  time until all bleeding stopped: ≤ 10 s
[10]; 1% solution
  hemostasis: partial cessation of bleeding
[10]; 2% peptide solution
  hemostasis: complete hemostasis was also achieved
[10]; 3% peptide solution
  hemostasis: complete hemostasis was also achieved
[10]; 4% peptide solution
  bleeding ten minutes later: still no bleeding
  bleeding under physical stress (lower part of lobe pulled downward): did not bleed
[10]; 30 seconds after treatment
  hemostasis after excess peptide structure was wiped away: hemostasis was maintained
[11]
  hemostasis after iced saline was removed and the peptide solution was applied: complete hemostasis almost immediately
[12]; control cut treated 15 minutes after the injury
  progression of the intestinal wall inversion: stopped the progression
[12]; control cut treated with peptide solution 15 minutes after the injury
  leakage from the injury site: stopped all leakage
[12]; site treated with 2% peptide solution
  leakage of gastric fluids from the intestine: all leakage of gastric fluids from the intestine stopped
